Entries after “also recorded” stand apart in the source; their conditions may differ. Where two headings read alike, the source gives them in different places.
Experiments:
BKCa channel (mSlo) = biological target: T1, BKCa channel (mSlo) (Mus musculus, UniProt Q08460); assay: Whole cell patch clamp of BKCa channel in stably transfected mSlo HEK293 cells; type: cell-based, murine
T1 construct: expressed in transfected cells
Procedure: (A-B) Representative current traces from whole cell patch with 5 mM EGTA in patch pipette. […] Voltage steps are shown at the right of each tracing; note different maximum voltage steps +200 mV (upper) vs. +120 mV (lower). […] Tail currents are in opposite direction due to final voltage step (+60 upper, −60 mV left). (C) G-V curves were constructed for indicated conditions utilizing tail analysis (Xia, et al., Multiple regulatory sites in large-conductance calcium-activated potassium channels. Nature, 2002. 418(6900):880-4). Solid lines were fitted with Boltzmann function (Origin 7.5). […] Representative of>30 similar experiments with rat and murine (pictured) s1o. (D-E) Stable mslo HEK293 cells were studied in whole cell configuration with pipette solution containing 5 mM EGTA (˜0 free Ca^2+).
(§1) Current was monitored with ramp protocol; holding potential −60 mV, with ramp from −80 mV to +150 mV over 500 ms. Extracellular application of NS-1619 (10 μM) increased current as previously described (Olesen, et al., Selective activation of Ca(2+)-dependent K+channels by novel benzimidazolone. Eur. J. Pharmacol., 1994. 251(1):53-9). […] Analysis performed using tail analysis with normalization as previously described (Xia, et al., Multiple regulatory sites in large-conductance calcium-activated potassium channels. Nature, 2002. 418(6900):880-4). (B) HEK cells co-expressing α and β1 subunits were studied in whole cell configuration with 5 mM EGTA (intra-pipette). […] (C) Human VSMC were studied in outside-out configuration, utilizing single channel recordings, recorded at +60 mV. […] Identification of the BKCa channel was determined by conductance and inhibition by iberiotoxin and TEA. […] Murine femoral arterial rings from were isolated and placed in a wire myograph. […] Figure representative of 4 similar experiments. Error bars are SEM; * p<0.001.

BKCa channel [1] = biological target: BKCa channel (Mus musculus, UniProt Q08460); assay: Single channel recordings of BKCa channel, outside-out and inside-out patches (cell-free configuration); type: biochemical; details: for inhibition of rottlerin channel activation: not shown
BKCa channel (Mus musculus, UniProt Q08460), sequence (Q08460 whole entry, the tested form may be a part): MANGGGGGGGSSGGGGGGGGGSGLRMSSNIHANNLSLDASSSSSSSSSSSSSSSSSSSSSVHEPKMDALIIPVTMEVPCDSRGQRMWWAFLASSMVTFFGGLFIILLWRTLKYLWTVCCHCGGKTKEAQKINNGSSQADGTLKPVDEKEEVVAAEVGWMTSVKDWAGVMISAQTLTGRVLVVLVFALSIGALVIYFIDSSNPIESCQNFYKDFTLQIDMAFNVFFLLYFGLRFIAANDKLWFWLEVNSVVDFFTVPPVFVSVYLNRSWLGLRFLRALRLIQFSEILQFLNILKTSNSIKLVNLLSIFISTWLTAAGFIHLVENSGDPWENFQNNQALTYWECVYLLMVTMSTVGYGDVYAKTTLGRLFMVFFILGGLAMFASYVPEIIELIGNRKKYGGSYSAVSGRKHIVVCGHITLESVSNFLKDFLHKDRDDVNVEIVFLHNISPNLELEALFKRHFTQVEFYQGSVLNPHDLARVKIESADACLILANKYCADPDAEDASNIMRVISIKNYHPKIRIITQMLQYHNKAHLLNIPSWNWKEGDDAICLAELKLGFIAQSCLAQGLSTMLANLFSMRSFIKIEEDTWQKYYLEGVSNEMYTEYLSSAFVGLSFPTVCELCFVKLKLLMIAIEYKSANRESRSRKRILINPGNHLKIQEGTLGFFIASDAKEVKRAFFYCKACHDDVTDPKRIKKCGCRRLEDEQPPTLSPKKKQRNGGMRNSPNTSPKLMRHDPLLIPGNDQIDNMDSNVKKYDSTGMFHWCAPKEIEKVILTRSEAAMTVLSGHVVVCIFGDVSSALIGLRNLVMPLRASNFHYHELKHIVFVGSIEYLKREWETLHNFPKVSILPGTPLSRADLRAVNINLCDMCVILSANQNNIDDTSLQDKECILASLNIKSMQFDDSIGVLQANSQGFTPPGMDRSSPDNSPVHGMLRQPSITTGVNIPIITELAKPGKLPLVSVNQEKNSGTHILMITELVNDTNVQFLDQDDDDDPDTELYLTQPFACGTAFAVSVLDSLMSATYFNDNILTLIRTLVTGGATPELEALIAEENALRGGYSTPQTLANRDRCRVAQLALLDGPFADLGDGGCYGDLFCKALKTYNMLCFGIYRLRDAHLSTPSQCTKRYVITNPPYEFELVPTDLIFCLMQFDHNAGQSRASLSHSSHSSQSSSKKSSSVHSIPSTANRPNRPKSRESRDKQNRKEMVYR
Procedure: Amplitude histograms are shown on the right. […] Ca^2+ was maintained at 0 (virtual; actual<20 nM) through dialysis using patch pipette. Since cellular compartments are excluded from patch and outside-out patch perfused locally with 0 Ca^2+, activation is Ca^2+-independent. […] Amplitude histograms are shown on the right.

[2] = tested on: Murine femoral arterial rings; assay: Phenylephrine induced constriction of femoral arterial rings, wire myograph; type: cell-based
Procedure: as §1

BKCa channels [3] = biological target: T2, BKCa channels (Homo sapiens, UniProt Q12791); details: cited from earlier work
T2 sequence (Q12791 whole entry): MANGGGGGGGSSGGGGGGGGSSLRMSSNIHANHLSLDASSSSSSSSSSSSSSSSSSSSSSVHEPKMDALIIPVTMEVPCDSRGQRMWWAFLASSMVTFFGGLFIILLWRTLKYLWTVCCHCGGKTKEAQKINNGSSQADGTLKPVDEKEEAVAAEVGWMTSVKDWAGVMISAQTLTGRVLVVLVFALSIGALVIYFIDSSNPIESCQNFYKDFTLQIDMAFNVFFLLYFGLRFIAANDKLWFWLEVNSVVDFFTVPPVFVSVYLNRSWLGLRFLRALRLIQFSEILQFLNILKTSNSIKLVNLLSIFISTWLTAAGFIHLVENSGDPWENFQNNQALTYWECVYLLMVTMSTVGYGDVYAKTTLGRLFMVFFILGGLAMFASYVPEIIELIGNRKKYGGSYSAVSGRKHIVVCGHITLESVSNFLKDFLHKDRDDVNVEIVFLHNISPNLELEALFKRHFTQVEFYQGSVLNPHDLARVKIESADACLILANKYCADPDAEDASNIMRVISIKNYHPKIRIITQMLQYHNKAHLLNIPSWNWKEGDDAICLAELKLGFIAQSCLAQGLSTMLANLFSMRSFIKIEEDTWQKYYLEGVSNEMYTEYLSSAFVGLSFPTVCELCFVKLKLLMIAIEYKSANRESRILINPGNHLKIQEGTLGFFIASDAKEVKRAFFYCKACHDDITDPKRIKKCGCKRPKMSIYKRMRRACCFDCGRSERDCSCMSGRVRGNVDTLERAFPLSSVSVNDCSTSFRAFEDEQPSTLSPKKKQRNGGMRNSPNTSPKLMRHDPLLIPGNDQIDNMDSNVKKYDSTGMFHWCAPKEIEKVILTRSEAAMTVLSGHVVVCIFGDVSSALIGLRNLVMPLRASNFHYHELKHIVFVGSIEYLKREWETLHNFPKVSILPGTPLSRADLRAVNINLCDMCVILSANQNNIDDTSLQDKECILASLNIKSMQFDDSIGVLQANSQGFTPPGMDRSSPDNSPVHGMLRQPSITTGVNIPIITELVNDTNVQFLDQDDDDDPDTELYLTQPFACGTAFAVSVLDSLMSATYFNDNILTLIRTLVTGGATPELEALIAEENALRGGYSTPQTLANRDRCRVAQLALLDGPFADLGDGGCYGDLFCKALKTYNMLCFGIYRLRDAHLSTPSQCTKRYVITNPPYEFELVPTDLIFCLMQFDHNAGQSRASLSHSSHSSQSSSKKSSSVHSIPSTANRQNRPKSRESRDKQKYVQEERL

maxi-K channels = maxi-K channels (Homo sapiens, UniProt Q12791); details: applied to the cytoplasmic side; cited from earlier work
maxi-K channels, sequence (Q12791 whole entry): as above

[4] = not told; cited from earlier work
[5] = biological target: maxi-K potassium channels (Homo sapiens, UniProt Q12791); details: cited from earlier work
maxi-K potassium channels, sequence (Q12791 whole entry): as above

rat stroke models = details: cited from earlier work
BKCa channel [6] = biological target: T3, BKCa channel (Sus scrofa, UniProt O18866); details: cited from earlier work
T3 construct: host or cells: porcine coronary artery cells (endogenous)
T3 sequence (O18866 whole entry): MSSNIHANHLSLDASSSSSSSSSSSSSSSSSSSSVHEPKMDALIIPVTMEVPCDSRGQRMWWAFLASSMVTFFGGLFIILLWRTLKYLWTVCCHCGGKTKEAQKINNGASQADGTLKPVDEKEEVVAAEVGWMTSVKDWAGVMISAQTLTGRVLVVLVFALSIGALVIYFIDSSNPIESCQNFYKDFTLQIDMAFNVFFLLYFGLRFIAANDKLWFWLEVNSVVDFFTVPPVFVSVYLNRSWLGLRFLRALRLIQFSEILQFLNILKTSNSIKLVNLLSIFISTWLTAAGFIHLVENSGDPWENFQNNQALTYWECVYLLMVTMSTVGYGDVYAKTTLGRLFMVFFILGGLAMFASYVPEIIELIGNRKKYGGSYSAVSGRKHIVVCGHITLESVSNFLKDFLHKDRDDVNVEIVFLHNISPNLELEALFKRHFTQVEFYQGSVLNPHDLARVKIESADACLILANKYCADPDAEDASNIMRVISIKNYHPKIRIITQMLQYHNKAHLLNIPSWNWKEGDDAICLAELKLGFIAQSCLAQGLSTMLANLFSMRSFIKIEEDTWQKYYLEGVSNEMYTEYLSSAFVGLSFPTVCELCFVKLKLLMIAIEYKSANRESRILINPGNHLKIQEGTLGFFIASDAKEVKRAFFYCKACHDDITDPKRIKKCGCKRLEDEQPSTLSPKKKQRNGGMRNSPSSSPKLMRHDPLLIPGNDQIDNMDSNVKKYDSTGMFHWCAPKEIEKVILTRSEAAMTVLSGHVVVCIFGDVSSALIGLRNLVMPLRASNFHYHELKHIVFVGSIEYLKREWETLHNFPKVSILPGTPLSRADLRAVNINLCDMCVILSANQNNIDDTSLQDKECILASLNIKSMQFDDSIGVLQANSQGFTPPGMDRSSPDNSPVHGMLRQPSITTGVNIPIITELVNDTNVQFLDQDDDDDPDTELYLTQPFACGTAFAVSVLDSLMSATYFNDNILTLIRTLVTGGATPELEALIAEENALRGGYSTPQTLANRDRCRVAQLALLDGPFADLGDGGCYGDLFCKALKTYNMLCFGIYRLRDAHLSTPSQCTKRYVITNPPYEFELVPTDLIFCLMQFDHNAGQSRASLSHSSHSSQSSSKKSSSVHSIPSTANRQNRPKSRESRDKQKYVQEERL

Ca^2+ sparks (RyR) = details: cited from earlier work
PKCδ [7] = biological target: T4, PKCδ (Homo sapiens, UniProt Q05655); details: rottlerin 20 μM; 0.1 mM (or 0.01 mM) ATP; phosphatidylserine; histone H1 or myelin basic protein substrate; cited from earlier work
T4 sequence (Q05655 whole entry): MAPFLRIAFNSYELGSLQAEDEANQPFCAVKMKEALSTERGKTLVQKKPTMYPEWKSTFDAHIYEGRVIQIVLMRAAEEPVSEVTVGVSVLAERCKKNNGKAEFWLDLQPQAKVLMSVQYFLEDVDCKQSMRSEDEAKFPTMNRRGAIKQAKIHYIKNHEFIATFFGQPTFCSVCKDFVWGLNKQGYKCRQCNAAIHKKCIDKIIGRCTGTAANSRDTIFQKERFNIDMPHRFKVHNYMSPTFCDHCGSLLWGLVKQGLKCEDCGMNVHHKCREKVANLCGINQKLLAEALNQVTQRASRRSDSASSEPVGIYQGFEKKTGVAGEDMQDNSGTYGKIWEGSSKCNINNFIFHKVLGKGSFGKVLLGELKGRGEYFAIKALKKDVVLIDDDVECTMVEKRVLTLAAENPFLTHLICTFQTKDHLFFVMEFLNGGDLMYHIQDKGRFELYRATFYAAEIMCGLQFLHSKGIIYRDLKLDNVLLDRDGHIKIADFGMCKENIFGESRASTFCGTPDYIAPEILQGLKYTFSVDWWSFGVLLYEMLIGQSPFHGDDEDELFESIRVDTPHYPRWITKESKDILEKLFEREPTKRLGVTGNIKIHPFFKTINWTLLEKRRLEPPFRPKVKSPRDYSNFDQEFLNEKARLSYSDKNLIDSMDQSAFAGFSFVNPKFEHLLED

[8] = biological target: T5, BKCa channel mSlo and β1 subunit (Mus musculus, UniProt Q08460); assay: Whole cell recording in HEK cells co-expressing α and β1 subunits; type: cell-based, murine
T5 construct: expressed in transfected cells; host or cells: HEK293
T5 sequence (Q08460 whole entry): as the sequence (Q08460 whole entry, the tested form may be a part) above
T5 sequence (Q16558 whole entry partner): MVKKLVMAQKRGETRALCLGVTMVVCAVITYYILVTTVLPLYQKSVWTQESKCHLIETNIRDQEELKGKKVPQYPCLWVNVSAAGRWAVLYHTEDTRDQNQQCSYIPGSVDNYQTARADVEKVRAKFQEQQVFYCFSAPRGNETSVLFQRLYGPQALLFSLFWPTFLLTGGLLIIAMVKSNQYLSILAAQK
Procedure: as §1

rats = details: purified rottlerin 10-20 mg/kg/day × 6 days; cited from earlier work
PKA = PKA (Homo sapiens, UniProt P17612); details: read-out: IC50 for PKA; in vitro; cited from earlier work
3T3-L1 adipocytes = details: read-out: IC50, inhibition of insulin-induced glucose uptake; cited from earlier work
[9] = biological target: T6, glutamate-aspartate transporter (GLAST) (Homo sapiens, UniProt P43003); details: cited from earlier work
T6 construct: host or cells: astrocytes (from the cited title only)

casein kinase II = casein kinase II (Homo sapiens, UniProt P68400); details: read-out: IC50 for casein kinase II; in vitro; cited from earlier work
PKCδ [10] = biological target: T4, PKCδ; details: more recent data; cited from earlier work
PKCδ [11] = biological target: T4, PKCδ; details: read-out: IC50 for PKCδ; in vitro; cited from earlier work
other PKC isozymes = details: in vitro; cited from earlier work
BKCa channels [12] = biological target: T2, BKCa channels; assay: Single channel recordings (outside-out) in human VSMC; type: cell-based; parameters: endogenous in cells; host or cells: human vascular smooth muscle cells (VSMC) grown in vitro; details: recorded at +60 mV
Procedure: as §1

[13] = tested on: mitochondria in intact cells; details: cited from earlier work
guinea pigs = details: purified rottlerin 10-20 mg/kg/day × 6 days; cited from earlier work
PKCα = PKCα (Homo sapiens, UniProt P17252); details: rottlerin 20 μM; 0.1 mM (or 0.01 mM) ATP; phosphatidylserine; histone H1 or myelin basic protein substrate; cited from earlier work
[14] = tested on: canine subarachnoid hemorrhage model; details: rottlerin 5 μM injected into the cistema magna; cited from earlier work
[15] = biological target: BKCa channel α and β subunits (Homo sapiens, UniProt Q12791); details: α and β subunits co-expressed; cited from earlier work
BKCa channel α and β subunits, sequence (Q12791 whole entry): as the sequence (Q12791 whole entry) above
BKCa channel α and β subunits, sequence (Q16558 whole entry partner): as the sequence (Q16558 whole entry partner) above

Ca^2+ channel = details: cited from earlier work
Cl^− channel = details: cited from earlier work
hypertensive rat model = hypertensive rat model compared to controls; cited from earlier work
[16] = tested on: porcine coronary myocytes; details: 30 μM; through ryanodine receptor sensitive storage sites; cited from earlier work

T1 sequence (Q08460 whole entry): as the sequence (Q08460 whole entry, the tested form may be a part) above

Molecule: CC[N+](CC)(CC)CC [TEA, reference compound]
- inhibition of rottlerin induced BKCa activation (BKCa channel (mSlo); TEA 5 mM): reversibly inhibited
- inhibition of rottlerin channel activation (BKCa channel [1]): can be inhibited
- inhibition of the rottlerin mediated effect on contraction ([2]; TEA): inhibited

Molecule: CC1(C)C[C@@H](O)[C@]2(C)CC[C@]3(C)C(=CC[C@@H]4[C@@]5(C)CC[C@H](O[C@@H]6O[C@H](C(=O)O)[C@@H](O)[C@H](O)[C@H]6O[C@@H]6O[C@H](CO)[C@H](O)[C@H](O)[C@H]6O)[C@](C)(CO)[C@@H]5CC[C@]43C)[C@@H]2C1 [soyasaponin III]
- BKCa channel activation (BKCa channels [3]): activate BKCa channels

Molecule: C=C[C@]1(C)C=C2CC[C@@]3(O)C(C)(C)CC[C@H](O)[C@]3(C)C2CC1 (stereo partly shown) [Maxikdiol]
- concentration with significant effect on channel (maxi-K channels): 3 to 10 µM
- threshold concentration for channel activation (maxi-K channels): 1 µM
- membrane permeability [4]: limited

Molecule: COc1ccc(Cl)cc1[C@]1(F)C(=O)Nc2cc(C(F)(F)F)ccc21 [BMS-204352]
- effect on current ([5]; 50 nM intracellular Ca2+): almost no effect
- effect on current ([5]; higher intracellular Ca2+ concentrations): progressively greater increases in current
- brain infarct size (rat stroke models): reduction in brain infarct size

Molecule: iberiotoxin: inhibitor used to identify the BKCa channel (QFTDVDCSVSKECWSVCKDLFGVDRGKCMGKKCRCYQ; UniProt P24663 1-37, looked up) [reference compound]
- inhibition of rottlerin channel activation (BKCa channel [1]): can be inhibited

Molecule: O=C(Nc1cccc(C(F)(F)F)c1)Nc1cc(Cl)ccc1O [NS1608]
- effect at higher concentrations (bell shaped) (BKCa channel [6]; 50 μM): inhibitory effect
- concentration of maximum BKCa channel activation (BKCa channel [6]; porcine coronary artery cells): 5 to 10 µM
- minimum effective concentration, BKCa channel activation (BKCa channel [6]; porcine coronary artery cells): 0.5 µM

Molecule: Ryanodine
- reduction of dilation to forskolin (Ca^2+ sparks (RyR)): 80%

Molecule: CC(=O)c1c(O)c(C)c(O)c(Cc2c(O)c3c(c(C(=O)/C=C/c4ccccc4)c2O)OC(C)(C)C=C3)c1O [rottlerin, 5,7-dihydroxy-2,2-dimethyl-6-(2,4,6-trihydroxy-3-methyl-5-acetylbenzyl)-8-cinnamoyl-1,2-chromene]
- BKCa channel activity on extracellular exposure (BKCa channel (mSlo); 0.5 μM via local perfusion after 25 min intracellular dialysis): significantly increased
- BKCa channel activity/current on intracellular dialysis (BKCa channel (mSlo); 20 μM rottlerin in patch pipette, 5 mM EGTA, over 25 min): minimal effect; also recorded: only a relatively small effect
- tail currents (slowing of deactivation) (BKCa channel (mSlo); after exposure to rottlerin (FIG. 4: 0.5 μM extracellular, 5 mM EGTA in pipette)): significantly prolonged; also recorded: markedly prolonged
- BKCa channel activation on local perfusion (BKCa channel (mSlo); extracellular, pipette 5 mM EGTA (~0 free Ca2+)): activated channel
- current after NS-1619 administration (BKCa channel (mSlo); rottlerin 0.5 μM added after NS-1619 (10 μM), 0 Ca2+): incrementally increased current
- BKCa channel activity (BKCa channel (mSlo); rottlerin ≦100 nM, non-phosphorylated conditions, non-Ca2+ dependent, reversible): dramatically increased
- effect on PKCδ activity (PKCδ [7]): virtually no effect
- channel activity ([8]; HEK293 cells expressing both mSlo and β1 subunit): activated the channel
- I-V curve ([8]; rottlerin 0.5 μM, whole cell, 5 mM EGTA intra-pipette): significantly shifted the I-V curve to the left
- single channel activity, outside-out patch (BKCa channel [1]; rottlerin 0.5 μM local perfusion to extracellular side, 0 Ca2+ (actual <20 nM)): activation of BKCa
- single channel activity, inside-out patch (BKCa channel [1]; rottlerin 0.5 μM local perfusion, 0 Ca2+): activation of BKCa
- channel conductance (BKCa channel [1]; rottlerin 0.5 μM, amplitude histograms): does not significantly change
- fertility rate (rats): reduce the fertility rate
- IC50 (PKA): 30 to 100 µM
- IC50 (3T3-L1 adipocytes): 10 µM
- capacity of GLAST glutamate transporter [9]: decrease the capacity
- IC50 (casein kinase II): 30 to 100 µM
- effect on phenylephrine mediated contraction ([2]; rottlerin 1 μM): no significant effect
- reduction of phenylephrine mediated contraction ([2]; rottlerin 4 μM): > 50%
- PE induced constriction of the vessel ([2]; rottlerin (0.5 μM), p<0.001, representative of 4 experiments): significantly inhibited
- blocking PKCδ activity in vitro (PKCδ [10]): ineffective
- IC50 (PKCδ [11]): 3 to 6 µM
- IC50 (other PKC isozymes): 30 to 100 µM
- Po (BKCa channels [12]; rottlerin (0.5 μM) by local perfusion): significantly increased
- open dwell time (BKCa channels [12]; rottlerin (0.5 βM) by local perfusion): significantly increased
- uncoupling of mitochondria ([13]; 10 μM): can uncouple mitochondria
- ATP levels ([13]; PKC independent): reduce ATP levels
- fertility rate (guinea pigs): reduce the fertility rate
- effect on PKCα activity (PKCα): virtually no effect
- cerebral vasospasm [14]: inhibited the initial phase of cerebral vasospasm
- toxic effects [14]: No toxic effects

Molecule: dehydrosoyasaponin-I [DHS-I]
- channel activity [15]: increases channel activity
- BKCa channel activation (BKCa channels [3]): activate BKCa channels
- membrane permeability [4]: poor

Molecule: C[C@@H]1O[C@@H](O[C@H]2[C@H](O[C@H]3[C@H](O[C@H]4CC[C@@]5(C)[C@@H](CC[C@]6(C)[C@@H]5CC=C5[C@@H]7CC(C)(C)C[C@@H](O)[C@]7(C)CC[C@]56C)[C@@]4(C)CO)O[C@H](C(=O)O)[C@@H](O)[C@@H]3O)O[C@H](CO)[C@H](O)[C@@H]2O)[C@H](O)[C@H](O)[C@H]1O [soyasaponin I]
- BKCa channel activation (BKCa channels [3]): activate BKCa channels

Molecule: O=c1[nH]c2cc(C(F)(F)F)ccc2n1-c1cc(C(F)(F)F)ccc1O [NS-1619]
- peak K+ current (BKCa channel (mSlo)): activated
- Ca2+ channel (Ca^2+ channel): inhibits
- Cl- channel (Cl^− channel): inhibits
- efficacy in mediating vascular relaxation (hypertensive rat model): diminished
- intracellular Ca2+ concentration [16]: increase intracellular Ca^2+ concentration

— patent US20090111868A1 (priority 2004, published 2009)
